Results on four compounds are retold here after publication PMC12300041, “Tricyclic Isatin Derivatives as Anti-Inflammatory Compounds with High Kinase Binding Affinity” (Molecules, 2025).

SMILES strings stand for the structures.

In data set [1] the test system is proinflammatory cytokine production. Nature of the data set: Multiplex human cytokine ELISA, LPS-stimulated MonoMac-6 cells. It is filed as cell-based. The settings on record: 10 μM compound, 24 h, versus DMSO-treated control. An excerpt:
A multiplex human cytokine ELISA kit from Anogen (Mississauga, ON, Canada) was used to evaluate various cytokines (IL-1α, IL-1β, IL-6, GM-CSF, MCP-1, IFN-γ, and TNF) in the supernatants of MonoMac-6 cells.
Background: An ELISA detects its analyte on a solid surface through an enzyme-linked reagent.

Data set [2] in a line: Cytotoxicity, CellTiter-Glo. It is filed as cell-based, human. The conditions noted are these: human, THP-1Blue cells; 24 h incubation; N.T.: no cytotoxicity at concentrations up to 50 µM. How it is done: (§1) Cytotoxicity was analyzed with a CellTiter-Glo Luminescent Cell Viability Assay Kit from Promega (Madison, WI, USA) according to the manufacturer’s protocol. THP-1Blue cells were treated with varying concentrations of the test compounds (up to 50 µM) and cultivated for 24 h. After treatment, the cells were allowed to equilibrate to room temperature for 30 min, the substrate was added, and the samples were analyzed with a Fluoroscan Ascent FL (Thermo Fisher Scientific, Waltham, MA, USA).

The subject of a further data set is THP-1 Cells. In words: Cytotoxicity, CellTiter-Glo. The data set is classed as cell-based, human. The conditions noted are these: 24 h incubation; N.T.: no cytotoxicity at concentrations up to 50 µM. The procedure: as §1
Data set [3] can be described thus: Cytotoxicity, CellTiter-Glo. The settings on record: human, MonoMac-6 cells; 24 h incubation; N.T.: no cytotoxicity at concentrations up to 50 µM. It is filed as cell-based, human. (In general: Cellular ATP, detected with luciferase, serves as a proxy for viable cell number.)
Another data set has as its system MonoMac-6 Cells. In words: Cytotoxicity, CellTiter-Glo. It is filed as cell-based, human. The settings on record: 24 h incubation; N.T.: no cytotoxicity at concentrations up to 50 µM.
The target of a further data set is T1, DAPK1 (Homo sapiens, UniProt P53355).
T1 construct: purchased Eurofins Pharma Discovery (KINOMEscan)
In words: KINOMEscan. It is filed as binding. The settings on record: DAPK1; N.B.: no binding at concentrations up to 30 µM. How it is done: (§2) Kinase profiling was performed by KINOMEscan (Eurofins Pharma Discovery, San Diego, CA, USA), using a panel of 423 protein kinases, as described previously. Compounds were submitted for dissociation constant (Kd) determination toward several target kinases using KINOMEscan. […] Binding reactions were performed at room temperature for 1 h, and the fraction of kinase not bound to the test compound was determined by capture with an immobilized affinity ligand and quantified by quantitative polymerase chain reaction. The primary screening at fixed concentrations of the compound was performed in duplicate. For dissociation constant Kd determination, a 12-point half-log dilution series (a maximum concentration of 33 μM) was used.

The next data set has as its target T2, DAPK2 (Homo sapiens, UniProt Q9UIK4).
T2 construct: purchased Eurofins Pharma Discovery (KINOMEscan)
Nature of the data set: KINOMEscan. It is filed as binding. The settings on record: DAPK2; N.B.: no binding at concentrations up to 30 µM. The procedure: as §2

The target in the next data set is T3, DAPK3 (Homo sapiens, UniProt O43293).
T3 construct: purchased Eurofins Pharma Discovery (KINOMEscan)
In words: KINOMEscan. The settings on record: DAPK3; N.B.: no binding at concentrations up to 30 µM. The data set is classed as binding. The procedure: as §2

Another data set concerns the target T4, DYRK1A (Homo sapiens, UniProt Q13627).
T4 construct: purchased Eurofins Pharma Discovery (KINOMEscan)
Nature of the data set: KINOMEscan. The data set is classed as binding. The settings on record: DYRK1A; N.B.: no binding at concentrations up to 30 µM. The procedure:
as §2

In a further data set the target is T5, DYRK1B (Homo sapiens, UniProt Q9Y463).
T5 construct: purchased Eurofins Pharma Discovery (KINOMEscan)
In words: KINOMEscan. The conditions noted are these: DYRK1B; N.B.: no binding at concentrations up to 30 µM. The data set is classed as binding. The procedure: as §2

A further data set deals with T6, HASPIN (Homo sapiens, UniProt Q8TF76).
T6 construct: purchased Eurofins Pharma Discovery (KINOMEscan)
T6 sequence (Q8TF76 1-798): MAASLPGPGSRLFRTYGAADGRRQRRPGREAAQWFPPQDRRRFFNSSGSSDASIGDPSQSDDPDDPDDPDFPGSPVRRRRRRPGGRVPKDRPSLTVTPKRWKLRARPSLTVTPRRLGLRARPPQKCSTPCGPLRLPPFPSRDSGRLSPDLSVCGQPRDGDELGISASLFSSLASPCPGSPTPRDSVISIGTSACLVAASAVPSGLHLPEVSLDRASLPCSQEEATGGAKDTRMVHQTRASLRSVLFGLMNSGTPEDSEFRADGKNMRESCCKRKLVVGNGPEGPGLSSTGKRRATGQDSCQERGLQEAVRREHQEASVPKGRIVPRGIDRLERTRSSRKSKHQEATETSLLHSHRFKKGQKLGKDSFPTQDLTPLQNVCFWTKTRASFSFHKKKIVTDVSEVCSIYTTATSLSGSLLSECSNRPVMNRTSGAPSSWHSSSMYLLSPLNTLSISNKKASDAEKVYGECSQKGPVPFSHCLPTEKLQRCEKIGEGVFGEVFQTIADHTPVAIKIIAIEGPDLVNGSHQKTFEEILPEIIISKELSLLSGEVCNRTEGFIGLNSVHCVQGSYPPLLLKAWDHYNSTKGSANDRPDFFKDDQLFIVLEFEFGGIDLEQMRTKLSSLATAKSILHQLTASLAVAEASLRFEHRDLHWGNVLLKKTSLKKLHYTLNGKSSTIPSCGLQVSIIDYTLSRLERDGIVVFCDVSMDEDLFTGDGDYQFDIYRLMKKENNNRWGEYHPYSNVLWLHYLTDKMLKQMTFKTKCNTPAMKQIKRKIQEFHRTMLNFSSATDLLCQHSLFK
Nature of the data set: KINOMEscan. The data set is classed as binding. The settings on record: Haspin; N.B.: no binding at concentrations up to 30 µM. How it is done:
as §2

A further data set concerns the target T7, HIPK1 (Homo sapiens, UniProt Q86Z02).
T7 construct: purchased Eurofins Pharma Discovery (KINOMEscan)
Nature of the data set: KINOMEscan. It is filed as binding. The settings on record: HIPK1; N.B.: no binding at concentrations up to 30 µM. How it is done: as §2

Another data set has as its target T8, HIPK2 (Homo sapiens, UniProt Q9H2X6).
T8 construct: purchased Eurofins Pharma Discovery (KINOMEscan)
Nature of the data set: KINOMEscan. The data set is classed as binding. The conditions noted are these: HIPK2; N.B.: no binding at concentrations up to 30 µM. The procedure:
as §2

A further data set addresses T9, HIPK3 (Homo sapiens, UniProt Q9H422).
T9 construct: purchased Eurofins Pharma Discovery (KINOMEscan)
Nature of the data set: KINOMEscan. It is filed as binding. The settings on record: HIPK3; N.B.: no binding at concentrations up to 30 µM. The procedure:
as §2

The next data set addresses T10, IRAK1 (Homo sapiens, UniProt P51617).
T10 construct: purchased Eurofins Pharma Discovery (KINOMEscan)
Nature of the data set: KINOMEscan. The conditions noted are these: IRAK1; N.B.: no binding at concentrations up to 30 µM. The data set is classed as binding. How it is done:
as §2

In the next data set the target is T11, NEK10 (Homo sapiens, UniProt Q6ZWH5).
T11 construct: purchased Eurofins Pharma Discovery (KINOMEscan)
T11 sequence (Q6ZWH5 1-1172): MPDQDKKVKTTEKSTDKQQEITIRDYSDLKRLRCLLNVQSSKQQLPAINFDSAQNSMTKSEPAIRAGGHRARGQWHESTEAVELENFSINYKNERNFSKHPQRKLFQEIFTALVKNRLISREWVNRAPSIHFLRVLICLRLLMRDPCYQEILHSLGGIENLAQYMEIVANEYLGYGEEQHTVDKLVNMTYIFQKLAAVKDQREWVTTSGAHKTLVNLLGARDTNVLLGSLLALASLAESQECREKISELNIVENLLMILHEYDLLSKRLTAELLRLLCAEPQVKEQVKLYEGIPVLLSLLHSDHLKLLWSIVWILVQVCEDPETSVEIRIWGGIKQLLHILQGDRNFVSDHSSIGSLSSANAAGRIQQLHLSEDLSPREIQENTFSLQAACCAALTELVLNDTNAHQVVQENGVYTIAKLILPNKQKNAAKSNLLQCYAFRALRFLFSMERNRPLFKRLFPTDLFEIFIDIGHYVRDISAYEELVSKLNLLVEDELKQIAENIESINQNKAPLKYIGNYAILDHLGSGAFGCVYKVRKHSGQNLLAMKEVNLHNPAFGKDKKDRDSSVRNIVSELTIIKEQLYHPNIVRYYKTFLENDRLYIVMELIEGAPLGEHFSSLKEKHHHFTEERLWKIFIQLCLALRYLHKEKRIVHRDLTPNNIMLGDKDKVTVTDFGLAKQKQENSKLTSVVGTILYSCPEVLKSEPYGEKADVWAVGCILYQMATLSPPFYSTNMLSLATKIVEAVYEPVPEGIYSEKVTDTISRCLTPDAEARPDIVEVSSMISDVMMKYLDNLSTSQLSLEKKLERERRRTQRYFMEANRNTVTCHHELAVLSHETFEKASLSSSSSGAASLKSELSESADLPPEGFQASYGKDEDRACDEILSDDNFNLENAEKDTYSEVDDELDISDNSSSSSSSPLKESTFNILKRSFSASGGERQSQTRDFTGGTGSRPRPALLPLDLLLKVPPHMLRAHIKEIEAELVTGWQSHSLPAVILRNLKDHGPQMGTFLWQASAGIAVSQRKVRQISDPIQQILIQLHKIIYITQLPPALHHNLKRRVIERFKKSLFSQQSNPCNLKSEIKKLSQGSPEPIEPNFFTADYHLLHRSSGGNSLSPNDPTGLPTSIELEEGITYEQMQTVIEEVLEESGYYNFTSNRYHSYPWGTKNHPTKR
In words: KINOMEscan. It is filed as binding. The conditions noted are these: NEK10; N.B.: no binding at concentrations up to 30 µM. How it is done: as §2

A further data set has as its target T12, PIM1 (Homo sapiens, UniProt P11309).
T12 construct: purchased Eurofins Pharma Discovery (KINOMEscan)
Nature of the data set: KINOMEscan. It is filed as binding. The settings on record: PIM1; N.B.: no binding at concentrations up to 30 µM. The procedure: as §2

For another data set, the system named is kinases. In words: Published kinase profile of SP600125, selectivity score. The settings on record: from published kinase profile; 39/119. The data set is classed as binding.

T12 sequence (P11309 whole entry): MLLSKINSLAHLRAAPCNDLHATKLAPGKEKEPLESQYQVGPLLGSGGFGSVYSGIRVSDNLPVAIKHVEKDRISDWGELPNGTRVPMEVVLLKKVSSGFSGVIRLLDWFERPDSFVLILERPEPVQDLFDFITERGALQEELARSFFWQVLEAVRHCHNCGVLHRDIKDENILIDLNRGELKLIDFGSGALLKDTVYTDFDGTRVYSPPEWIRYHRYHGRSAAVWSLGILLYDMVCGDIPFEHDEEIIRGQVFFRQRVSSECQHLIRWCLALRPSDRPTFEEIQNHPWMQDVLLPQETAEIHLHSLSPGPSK
T1 sequence (P53355 whole entry): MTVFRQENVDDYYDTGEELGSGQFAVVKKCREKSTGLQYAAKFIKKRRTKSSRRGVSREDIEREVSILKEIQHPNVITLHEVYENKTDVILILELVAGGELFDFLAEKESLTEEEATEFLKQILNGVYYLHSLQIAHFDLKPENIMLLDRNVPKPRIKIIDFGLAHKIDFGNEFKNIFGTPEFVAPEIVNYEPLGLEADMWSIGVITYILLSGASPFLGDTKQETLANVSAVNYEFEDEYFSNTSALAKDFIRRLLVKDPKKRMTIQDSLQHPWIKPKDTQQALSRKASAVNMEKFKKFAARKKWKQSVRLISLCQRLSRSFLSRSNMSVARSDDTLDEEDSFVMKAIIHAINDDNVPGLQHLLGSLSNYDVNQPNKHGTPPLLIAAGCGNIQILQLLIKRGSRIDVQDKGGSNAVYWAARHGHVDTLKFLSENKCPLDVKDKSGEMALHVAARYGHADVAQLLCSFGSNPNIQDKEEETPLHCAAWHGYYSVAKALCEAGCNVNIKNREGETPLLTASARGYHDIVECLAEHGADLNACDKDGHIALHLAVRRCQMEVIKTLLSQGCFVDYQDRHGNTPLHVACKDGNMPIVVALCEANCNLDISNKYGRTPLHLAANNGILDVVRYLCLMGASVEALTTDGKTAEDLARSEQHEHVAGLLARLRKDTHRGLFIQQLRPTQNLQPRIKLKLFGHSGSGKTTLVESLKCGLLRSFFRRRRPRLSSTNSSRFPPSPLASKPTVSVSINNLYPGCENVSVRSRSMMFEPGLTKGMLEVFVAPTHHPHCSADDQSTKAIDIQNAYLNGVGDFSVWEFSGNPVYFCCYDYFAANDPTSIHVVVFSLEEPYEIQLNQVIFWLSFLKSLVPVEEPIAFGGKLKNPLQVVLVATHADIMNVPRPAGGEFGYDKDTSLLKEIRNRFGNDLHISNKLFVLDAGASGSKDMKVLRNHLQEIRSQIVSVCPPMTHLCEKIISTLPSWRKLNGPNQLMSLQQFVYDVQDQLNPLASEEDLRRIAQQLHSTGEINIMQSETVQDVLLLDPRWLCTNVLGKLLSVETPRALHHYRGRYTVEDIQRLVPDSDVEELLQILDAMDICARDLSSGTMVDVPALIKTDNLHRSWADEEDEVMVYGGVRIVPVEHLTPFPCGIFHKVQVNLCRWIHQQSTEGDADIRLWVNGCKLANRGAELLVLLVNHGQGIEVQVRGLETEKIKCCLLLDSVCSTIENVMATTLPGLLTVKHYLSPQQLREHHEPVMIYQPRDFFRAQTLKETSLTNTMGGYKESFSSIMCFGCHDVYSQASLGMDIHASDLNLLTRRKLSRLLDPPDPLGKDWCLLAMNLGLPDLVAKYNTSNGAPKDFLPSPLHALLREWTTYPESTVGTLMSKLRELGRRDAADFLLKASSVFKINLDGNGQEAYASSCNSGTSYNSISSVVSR
T7 sequence (Q86Z02 whole entry): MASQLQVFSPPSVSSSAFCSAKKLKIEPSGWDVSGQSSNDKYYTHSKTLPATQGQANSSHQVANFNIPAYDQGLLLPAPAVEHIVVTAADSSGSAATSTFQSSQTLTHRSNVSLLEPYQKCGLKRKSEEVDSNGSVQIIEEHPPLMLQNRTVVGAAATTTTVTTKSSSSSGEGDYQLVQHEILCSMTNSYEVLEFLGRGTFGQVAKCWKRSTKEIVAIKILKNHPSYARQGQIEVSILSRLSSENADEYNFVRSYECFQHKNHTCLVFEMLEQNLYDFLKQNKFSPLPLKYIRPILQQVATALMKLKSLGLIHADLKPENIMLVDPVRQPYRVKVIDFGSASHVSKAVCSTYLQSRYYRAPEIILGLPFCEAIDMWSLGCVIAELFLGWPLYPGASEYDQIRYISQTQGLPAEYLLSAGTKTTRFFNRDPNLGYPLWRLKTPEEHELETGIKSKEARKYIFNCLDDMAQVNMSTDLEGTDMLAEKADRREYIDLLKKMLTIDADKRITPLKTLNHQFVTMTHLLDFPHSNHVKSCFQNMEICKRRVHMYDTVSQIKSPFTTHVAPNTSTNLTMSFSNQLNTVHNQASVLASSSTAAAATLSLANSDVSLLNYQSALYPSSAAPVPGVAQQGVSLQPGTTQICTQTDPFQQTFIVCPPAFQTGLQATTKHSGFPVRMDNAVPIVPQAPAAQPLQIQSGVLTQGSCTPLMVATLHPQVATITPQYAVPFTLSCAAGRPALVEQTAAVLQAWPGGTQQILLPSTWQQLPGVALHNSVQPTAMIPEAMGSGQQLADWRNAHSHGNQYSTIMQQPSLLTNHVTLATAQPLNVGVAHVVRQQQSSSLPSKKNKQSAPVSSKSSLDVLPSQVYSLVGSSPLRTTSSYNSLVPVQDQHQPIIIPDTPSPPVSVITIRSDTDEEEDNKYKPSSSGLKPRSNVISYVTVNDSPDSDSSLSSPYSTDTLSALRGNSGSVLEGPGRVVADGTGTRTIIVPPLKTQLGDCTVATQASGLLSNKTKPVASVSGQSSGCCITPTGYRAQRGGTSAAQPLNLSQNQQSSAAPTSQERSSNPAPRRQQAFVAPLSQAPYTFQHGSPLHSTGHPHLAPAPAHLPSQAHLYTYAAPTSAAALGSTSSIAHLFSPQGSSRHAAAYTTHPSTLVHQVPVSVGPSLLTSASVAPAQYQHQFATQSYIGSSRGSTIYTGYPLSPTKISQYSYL
T8 sequence (Q9H2X6 whole entry): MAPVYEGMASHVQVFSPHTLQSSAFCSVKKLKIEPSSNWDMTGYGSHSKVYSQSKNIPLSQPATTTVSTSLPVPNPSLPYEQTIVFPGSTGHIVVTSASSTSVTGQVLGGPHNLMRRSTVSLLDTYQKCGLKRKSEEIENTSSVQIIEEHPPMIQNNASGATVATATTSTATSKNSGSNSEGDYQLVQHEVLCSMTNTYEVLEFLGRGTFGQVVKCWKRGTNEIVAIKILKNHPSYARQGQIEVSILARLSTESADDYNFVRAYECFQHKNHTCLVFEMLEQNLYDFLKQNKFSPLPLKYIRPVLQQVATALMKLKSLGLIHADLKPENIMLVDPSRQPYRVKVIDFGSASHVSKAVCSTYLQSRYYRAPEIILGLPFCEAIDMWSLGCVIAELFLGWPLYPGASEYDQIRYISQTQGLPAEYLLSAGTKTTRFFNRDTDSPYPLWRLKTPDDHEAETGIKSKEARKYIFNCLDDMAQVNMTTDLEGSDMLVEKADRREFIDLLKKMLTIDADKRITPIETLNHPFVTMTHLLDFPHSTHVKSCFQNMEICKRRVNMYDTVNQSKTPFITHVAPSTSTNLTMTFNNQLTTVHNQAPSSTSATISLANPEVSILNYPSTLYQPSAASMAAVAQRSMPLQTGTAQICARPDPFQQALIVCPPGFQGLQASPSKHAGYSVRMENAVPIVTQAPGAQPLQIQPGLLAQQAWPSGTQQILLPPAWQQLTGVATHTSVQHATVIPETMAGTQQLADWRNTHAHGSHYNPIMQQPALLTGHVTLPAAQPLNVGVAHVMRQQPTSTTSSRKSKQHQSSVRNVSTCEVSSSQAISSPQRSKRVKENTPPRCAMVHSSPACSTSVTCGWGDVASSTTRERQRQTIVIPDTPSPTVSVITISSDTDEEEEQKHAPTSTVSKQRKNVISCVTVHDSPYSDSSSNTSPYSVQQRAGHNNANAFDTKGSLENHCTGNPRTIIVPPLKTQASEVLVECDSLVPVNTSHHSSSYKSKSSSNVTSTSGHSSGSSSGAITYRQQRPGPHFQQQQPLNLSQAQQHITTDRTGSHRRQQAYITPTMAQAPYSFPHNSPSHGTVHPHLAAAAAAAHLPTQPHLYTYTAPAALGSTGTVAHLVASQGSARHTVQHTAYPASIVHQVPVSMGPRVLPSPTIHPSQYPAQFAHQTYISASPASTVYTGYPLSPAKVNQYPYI
T3 sequence (O43293 whole entry): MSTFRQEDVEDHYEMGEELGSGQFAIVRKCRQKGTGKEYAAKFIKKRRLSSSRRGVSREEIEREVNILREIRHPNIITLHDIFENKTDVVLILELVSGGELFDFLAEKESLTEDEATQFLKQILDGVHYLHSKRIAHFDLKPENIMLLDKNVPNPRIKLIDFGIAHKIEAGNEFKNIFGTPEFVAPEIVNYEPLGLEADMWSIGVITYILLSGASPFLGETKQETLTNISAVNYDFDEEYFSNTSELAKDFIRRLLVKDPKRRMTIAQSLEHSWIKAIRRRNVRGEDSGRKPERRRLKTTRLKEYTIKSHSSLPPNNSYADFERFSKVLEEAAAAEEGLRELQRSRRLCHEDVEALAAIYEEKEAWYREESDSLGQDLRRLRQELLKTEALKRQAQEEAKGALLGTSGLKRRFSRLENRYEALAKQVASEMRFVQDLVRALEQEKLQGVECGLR
T2 sequence (Q9UIK4 whole entry): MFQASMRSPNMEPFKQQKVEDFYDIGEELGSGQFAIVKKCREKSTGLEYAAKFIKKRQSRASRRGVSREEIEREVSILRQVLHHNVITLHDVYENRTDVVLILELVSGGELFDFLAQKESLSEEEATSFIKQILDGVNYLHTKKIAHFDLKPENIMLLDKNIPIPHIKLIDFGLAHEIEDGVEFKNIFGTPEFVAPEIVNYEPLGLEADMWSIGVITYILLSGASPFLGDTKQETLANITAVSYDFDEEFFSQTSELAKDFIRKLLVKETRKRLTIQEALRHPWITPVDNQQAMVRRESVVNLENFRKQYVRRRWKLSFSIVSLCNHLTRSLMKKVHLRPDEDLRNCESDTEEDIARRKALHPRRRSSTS

In the case of `CON=C1C(=O)Nc2c1ccc1c2CCCC1` [Compound 5b, 3-(Methoxyimino)-1,3,6,7,8,9-hexahydro-2H-benzo[g]indol-2-one], the “inhibition of secretion of IL-1α, IL-1β, IL-6, TNF and MCP-1” value in data set [1] is reported as “ineffective”.
The same measure, in the same setting: the entry for `CON=C1C(=O)Nc2c1cc([N+](=O)[O-])c1c2CCCC1` [Compound 5e, 3-(Methoxyimino)-5-nitro-1,3,6,7,8,9-hexahydro-2H-benzo[g]indol-2-one] is “ineffective”.
The term IC50 denotes the midpoint of a concentration-inhibition curve. A lower IC50 goes with greater potency. Broadly, the Kd is the equilibrium constant for the complex coming apart. For the compound `CCN1CCc2c(-c3ccccc3)cc3c(c2C1)NC(=O)C3=NO` [NS-383, 8-ethyl-6,7,8,9-tetrahydro-5-phenyl-1H-pyrrolo[3,2-h]isoquinolin-2,3-dione-3-oxime, reference compound], the IC50 at 24 h was 19.2 ± 2.1 µM in [2] and 21.2 ± 2.4 µM in data set [3]. The “Cytotoxicity (THP-1 Cells) IC50 (µM)” value in the data set with THP-1 Cells is on record as “cytotoxic”. The “Cytotoxicity (MonoMac-6 Cells) IC50 (µM)” value in the data set with MonoMac-6 Cells was “cytotoxic”. For the same compound, the “Kd (µM)” value at DAPK1, on DAPK2, on DAPK3, at DYRK1A, on DYRK1B and at HASPIN was “N.B” in each case. Moreover, the “Kd (µM)” value at HIPK1, on HIPK2, at HIPK3, at IRAK1 and at NEK10 was “N.B” throughout. At PIM1, the Kd came out at 14 ± 0.7 µM.
In the case of `Oc1c2ccccc2c2c3c(cccc13)N=N2` [SP600125], in the data set with kinases, the “selectivity score, S(10)” value amounted to 0.328.
